Assay in all cases: pIC50, kinobeads binding competition
For assay [1], the target named is UniProt Q9HBH9. In short, it runs like this: (§1)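 pIC50 was obtained by fitting fold changes against vehicle to logistic dose-response curves with the R drc package, using biological duplicates. Kinobeads-bound proteins were digested and measured by TMT10 LC-MS/MS. Before this, either living Jurkat cells received nine compound concentrations (top 30 μM, 1:4 steps) for 60 min at 37 °C prior to lysis, or Jurkat lysate or a 1:1:1:1 HEK293/K-562/HepG2/placenta lysate mix received nine concentrations (top 30 μM, 1:5 steps) for 60 min at 4 °C.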

Assay [2] concerns the target T1, EPHB2 (UniProt P29323).
T1 sequence (whole entry): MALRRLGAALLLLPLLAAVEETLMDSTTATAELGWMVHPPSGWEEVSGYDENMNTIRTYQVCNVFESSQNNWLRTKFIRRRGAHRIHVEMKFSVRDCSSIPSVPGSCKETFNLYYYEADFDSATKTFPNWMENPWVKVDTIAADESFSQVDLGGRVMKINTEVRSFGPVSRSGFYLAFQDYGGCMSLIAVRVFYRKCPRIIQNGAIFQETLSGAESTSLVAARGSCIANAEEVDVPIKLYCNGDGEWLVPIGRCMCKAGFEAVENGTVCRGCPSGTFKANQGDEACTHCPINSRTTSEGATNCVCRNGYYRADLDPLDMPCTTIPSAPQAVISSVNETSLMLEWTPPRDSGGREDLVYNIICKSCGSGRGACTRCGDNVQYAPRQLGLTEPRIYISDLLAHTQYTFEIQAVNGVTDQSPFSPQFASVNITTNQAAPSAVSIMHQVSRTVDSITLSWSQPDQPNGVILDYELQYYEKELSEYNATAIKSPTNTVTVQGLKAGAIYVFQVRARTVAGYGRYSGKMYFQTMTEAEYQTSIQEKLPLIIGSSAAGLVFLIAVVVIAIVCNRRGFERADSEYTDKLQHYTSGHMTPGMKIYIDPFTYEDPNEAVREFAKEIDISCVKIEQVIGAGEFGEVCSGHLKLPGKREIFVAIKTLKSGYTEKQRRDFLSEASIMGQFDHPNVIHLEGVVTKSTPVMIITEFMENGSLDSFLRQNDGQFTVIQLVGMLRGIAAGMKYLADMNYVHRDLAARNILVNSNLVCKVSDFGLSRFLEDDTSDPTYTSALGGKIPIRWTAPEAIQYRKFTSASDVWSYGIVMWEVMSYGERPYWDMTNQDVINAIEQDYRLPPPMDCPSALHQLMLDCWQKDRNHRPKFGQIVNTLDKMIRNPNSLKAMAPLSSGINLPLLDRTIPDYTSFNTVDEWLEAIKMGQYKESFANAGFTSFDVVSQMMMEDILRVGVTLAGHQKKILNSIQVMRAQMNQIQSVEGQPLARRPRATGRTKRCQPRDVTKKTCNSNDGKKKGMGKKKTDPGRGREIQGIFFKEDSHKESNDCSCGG
Put shortly: as §1

Assay [3] has as its target UniProt Q8NI60. Put shortly:
as §1

In assay [4] the target is CDK8 (UniProt P49336). In short, it runs like this:
as §1

In assay [5] the target is T2, TGFBR1 (UniProt P36897).
T2 sequence (whole entry): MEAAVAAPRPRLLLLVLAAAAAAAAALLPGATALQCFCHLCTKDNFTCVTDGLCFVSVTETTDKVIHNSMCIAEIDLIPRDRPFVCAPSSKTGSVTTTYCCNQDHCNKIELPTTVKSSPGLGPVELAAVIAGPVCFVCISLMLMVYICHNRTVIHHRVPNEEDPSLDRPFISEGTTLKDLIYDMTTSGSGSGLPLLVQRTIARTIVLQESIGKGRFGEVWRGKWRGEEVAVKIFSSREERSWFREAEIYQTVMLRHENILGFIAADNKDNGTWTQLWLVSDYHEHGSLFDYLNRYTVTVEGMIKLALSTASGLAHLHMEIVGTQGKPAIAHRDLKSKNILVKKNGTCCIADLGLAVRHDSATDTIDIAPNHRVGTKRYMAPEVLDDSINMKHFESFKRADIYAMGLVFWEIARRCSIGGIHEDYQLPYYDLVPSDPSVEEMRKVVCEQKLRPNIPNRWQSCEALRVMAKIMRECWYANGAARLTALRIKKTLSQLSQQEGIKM
Put shortly: as §1

Assay [6] concerns the target UniProt Q13557. Put shortly: as §1
Assay [7] concerns the target BMPR1A (UniProt P36894). Put shortly: as §1
Assay [8] concerns the target UniProt Q9NYL2. Put shortly:
as §1

Assay [9] has as its target BUB1 (UniProt O43683). Put shortly: as §1

Chain of BUB1 (O43683 whole entry, looked up): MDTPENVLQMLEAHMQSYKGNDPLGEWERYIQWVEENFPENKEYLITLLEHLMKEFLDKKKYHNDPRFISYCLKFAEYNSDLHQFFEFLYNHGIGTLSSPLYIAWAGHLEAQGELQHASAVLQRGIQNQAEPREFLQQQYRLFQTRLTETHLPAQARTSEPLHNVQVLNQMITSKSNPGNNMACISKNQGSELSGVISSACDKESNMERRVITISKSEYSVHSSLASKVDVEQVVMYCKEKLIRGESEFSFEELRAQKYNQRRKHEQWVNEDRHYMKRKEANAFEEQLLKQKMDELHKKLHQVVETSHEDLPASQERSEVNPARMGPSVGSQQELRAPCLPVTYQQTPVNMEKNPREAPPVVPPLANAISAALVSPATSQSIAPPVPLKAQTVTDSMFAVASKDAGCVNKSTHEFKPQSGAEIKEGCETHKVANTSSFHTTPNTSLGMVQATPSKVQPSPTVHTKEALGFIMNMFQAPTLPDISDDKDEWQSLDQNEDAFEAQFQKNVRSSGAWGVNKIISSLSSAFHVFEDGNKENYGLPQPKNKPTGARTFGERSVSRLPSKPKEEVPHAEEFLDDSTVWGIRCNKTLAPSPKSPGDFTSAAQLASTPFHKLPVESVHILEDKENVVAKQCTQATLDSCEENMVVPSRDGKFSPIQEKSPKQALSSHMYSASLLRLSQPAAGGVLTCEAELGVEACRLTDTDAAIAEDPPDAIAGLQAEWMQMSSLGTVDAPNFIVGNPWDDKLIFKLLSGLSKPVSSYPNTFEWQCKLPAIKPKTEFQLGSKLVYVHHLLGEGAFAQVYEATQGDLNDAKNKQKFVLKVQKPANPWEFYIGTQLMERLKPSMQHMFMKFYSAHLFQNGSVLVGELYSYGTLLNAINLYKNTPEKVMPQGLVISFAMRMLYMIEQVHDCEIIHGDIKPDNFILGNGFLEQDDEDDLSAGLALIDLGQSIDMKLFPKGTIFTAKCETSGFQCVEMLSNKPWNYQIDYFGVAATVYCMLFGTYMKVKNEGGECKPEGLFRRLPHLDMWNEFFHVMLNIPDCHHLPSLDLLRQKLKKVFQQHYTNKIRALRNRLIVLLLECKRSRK
Chain of UniProt Q9HBH9 (Q9HBH9 whole entry, looked up): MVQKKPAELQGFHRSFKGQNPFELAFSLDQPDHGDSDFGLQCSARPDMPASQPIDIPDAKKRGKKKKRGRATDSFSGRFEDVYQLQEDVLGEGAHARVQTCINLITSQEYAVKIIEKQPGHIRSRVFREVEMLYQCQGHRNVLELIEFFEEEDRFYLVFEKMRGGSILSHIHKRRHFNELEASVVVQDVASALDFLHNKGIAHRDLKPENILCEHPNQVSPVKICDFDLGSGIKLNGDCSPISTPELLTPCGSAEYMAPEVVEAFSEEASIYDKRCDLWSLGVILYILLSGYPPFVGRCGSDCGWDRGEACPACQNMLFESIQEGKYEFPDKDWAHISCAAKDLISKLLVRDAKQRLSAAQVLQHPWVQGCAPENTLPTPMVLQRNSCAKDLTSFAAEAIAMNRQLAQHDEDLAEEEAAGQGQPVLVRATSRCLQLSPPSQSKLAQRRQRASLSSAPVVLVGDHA
Chain of UniProt Q13557 (Q13557 whole entry): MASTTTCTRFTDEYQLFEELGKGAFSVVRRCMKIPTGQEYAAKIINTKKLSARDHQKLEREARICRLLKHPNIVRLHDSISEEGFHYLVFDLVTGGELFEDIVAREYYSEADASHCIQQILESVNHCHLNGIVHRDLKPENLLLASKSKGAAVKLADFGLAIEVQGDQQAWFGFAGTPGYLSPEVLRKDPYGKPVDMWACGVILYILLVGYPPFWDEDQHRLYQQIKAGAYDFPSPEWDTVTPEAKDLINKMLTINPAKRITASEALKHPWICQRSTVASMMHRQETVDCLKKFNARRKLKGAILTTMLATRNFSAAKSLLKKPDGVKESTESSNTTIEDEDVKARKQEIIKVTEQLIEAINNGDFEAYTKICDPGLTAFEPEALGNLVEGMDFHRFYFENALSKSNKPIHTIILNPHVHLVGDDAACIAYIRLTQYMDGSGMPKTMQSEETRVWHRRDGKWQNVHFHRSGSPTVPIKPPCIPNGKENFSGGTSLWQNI
Chain of UniProt Q8NI60 (Q8NI60 whole entry, looked up): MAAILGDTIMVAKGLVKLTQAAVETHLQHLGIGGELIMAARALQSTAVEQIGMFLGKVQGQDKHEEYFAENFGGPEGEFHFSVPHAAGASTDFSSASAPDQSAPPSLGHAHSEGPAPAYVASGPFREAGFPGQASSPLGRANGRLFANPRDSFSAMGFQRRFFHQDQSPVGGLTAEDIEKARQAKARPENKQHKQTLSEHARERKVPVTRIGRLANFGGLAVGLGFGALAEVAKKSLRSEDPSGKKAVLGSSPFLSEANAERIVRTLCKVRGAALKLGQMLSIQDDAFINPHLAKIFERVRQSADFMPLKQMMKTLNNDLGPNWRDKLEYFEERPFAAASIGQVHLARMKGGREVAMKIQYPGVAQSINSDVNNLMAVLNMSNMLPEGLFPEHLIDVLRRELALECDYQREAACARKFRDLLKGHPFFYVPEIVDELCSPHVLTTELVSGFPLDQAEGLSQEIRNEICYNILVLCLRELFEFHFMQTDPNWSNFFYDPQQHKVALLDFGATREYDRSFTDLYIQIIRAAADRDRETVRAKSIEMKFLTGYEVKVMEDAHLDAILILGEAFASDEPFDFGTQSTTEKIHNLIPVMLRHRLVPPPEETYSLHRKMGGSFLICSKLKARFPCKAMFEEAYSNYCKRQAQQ
Chain of UniProt Q9NYL2 (Q9NYL2 whole entry, looked up): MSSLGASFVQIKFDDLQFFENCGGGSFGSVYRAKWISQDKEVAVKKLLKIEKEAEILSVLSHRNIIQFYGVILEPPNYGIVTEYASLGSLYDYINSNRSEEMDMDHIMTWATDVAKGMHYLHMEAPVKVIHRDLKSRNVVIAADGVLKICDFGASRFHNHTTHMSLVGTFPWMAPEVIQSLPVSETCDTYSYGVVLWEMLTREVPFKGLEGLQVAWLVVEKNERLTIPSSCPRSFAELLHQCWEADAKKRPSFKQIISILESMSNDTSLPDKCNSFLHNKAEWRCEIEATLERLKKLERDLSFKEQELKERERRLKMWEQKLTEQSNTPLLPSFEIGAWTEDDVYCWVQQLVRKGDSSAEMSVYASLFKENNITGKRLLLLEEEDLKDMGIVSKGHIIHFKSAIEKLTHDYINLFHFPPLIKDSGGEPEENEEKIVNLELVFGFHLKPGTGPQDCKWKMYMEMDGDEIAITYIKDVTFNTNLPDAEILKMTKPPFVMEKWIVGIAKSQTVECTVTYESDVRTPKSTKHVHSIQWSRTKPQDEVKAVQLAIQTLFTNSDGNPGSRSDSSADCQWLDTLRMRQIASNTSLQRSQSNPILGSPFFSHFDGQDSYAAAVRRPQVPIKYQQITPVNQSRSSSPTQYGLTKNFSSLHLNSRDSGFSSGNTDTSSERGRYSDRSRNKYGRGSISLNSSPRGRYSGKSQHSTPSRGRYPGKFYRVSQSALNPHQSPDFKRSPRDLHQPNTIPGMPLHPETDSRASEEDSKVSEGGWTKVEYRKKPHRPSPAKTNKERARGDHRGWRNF
Chain of BMPR1A (P36894 whole entry): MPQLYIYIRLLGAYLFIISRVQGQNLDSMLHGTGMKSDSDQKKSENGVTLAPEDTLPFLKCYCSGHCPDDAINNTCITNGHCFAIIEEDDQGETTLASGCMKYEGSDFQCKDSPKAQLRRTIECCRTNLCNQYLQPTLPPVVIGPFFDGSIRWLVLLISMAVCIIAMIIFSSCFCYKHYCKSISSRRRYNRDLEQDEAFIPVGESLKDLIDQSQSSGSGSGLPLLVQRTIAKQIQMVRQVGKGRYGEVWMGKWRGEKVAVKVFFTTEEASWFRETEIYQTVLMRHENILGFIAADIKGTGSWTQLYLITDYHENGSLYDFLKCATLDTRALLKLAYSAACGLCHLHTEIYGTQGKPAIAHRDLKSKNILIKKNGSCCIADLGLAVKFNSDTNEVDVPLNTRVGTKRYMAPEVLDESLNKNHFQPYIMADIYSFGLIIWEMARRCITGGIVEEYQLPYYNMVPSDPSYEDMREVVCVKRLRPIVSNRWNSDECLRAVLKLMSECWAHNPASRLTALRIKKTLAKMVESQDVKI
Chain of CDK8 (P49336 whole entry): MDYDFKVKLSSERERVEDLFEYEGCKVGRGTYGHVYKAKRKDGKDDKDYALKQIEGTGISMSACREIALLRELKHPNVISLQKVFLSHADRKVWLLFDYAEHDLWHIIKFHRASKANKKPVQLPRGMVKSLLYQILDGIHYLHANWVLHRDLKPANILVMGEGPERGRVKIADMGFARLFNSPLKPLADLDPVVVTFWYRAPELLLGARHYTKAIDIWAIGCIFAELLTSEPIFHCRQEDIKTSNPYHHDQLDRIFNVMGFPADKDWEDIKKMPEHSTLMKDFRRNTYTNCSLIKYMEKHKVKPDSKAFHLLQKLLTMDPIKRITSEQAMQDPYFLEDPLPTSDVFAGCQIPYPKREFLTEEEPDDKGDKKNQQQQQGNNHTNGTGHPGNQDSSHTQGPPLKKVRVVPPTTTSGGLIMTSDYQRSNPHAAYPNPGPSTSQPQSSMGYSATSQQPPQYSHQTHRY

For `Cc1cc(Nc2cc(C(=O)NCCNC(=O)OC3CC/C=C/CCC3)nc(N3CCN(Cc4ccc(S(=O)(=O)F)cc4)CC3)n2)n[nH]1` (centres undefined), the negative logarithm of the IC50 (pIC50) in assay [1] (cell material: Lysate mix), in assay [2] (cell material: Lysate mix), in assay [3] (cell material: Lysate mix), in assay [4] (cell material: Lysate mix), in assay [5] (cell material: Lysate mix) and in assay [6] (cell material: Lysate mix) was < 4.52 throughout. The negative logarithm of the IC50 (pIC50) in [7] (cell material: Lysate mix), in assay [8] (cell material: Lysate mix) and in assay [9] (cell material: Lysate mix) was < 4.52 throughout.
Turning to `C#CCNC(=O)c1cc(Nc2cc(C3CC3)[nH]n2)nc(N2CCN(Cc3ccc(S(=O)(=O)F)cc3)CC2)n1`, the pIC50 (as a rule, −log10 of the IC50, conventionally taken in molar units) is 5.15 in [1] (cell material: Jurkat cells); < 4.52 in assay [1] (cell material: Jurkat lysate); < 4.52 in assay [1] (cell material: Lysate mix); < 4.52 in assay [2] (cell material: Jurkat cells); < 4.52 in [2] (cell material: Jurkat lysate); < 4.52 in assay [2] (cell material: Lysate mix). The negative logarithm of the IC50 (pIC50) in [3] (cell material: Jurkat cells), in assay [3] (cell material: Jurkat lysate), in assay [3] (cell material: Lysate mix), in assay [4] (cell material: Jurkat cells), in assay [4] (cell material: Jurkat lysate) and in assay [4] (cell material: Lysate mix) was < 4.52 in each case. The pIC50 in [5] (cell material: Jurkat cells) was 5.75; in assay [5] (cell material: Jurkat lysate), 4.84; in [5] (cell material: Lysate mix) it was 5.46; in assay [6] (cell material: Jurkat cells) it was 4.9; in assay [6] (cell material: Jurkat lysate), < 4.52; in assay [6] (cell material: Lysate mix), < 4.52. Moreover, the pIC50 in assay [7] (cell material: Jurkat cells) was 4.69; in [7] (cell material: Jurkat lysate) it was < 4.52; in [7] (cell material: Lysate mix), 4.99; in assay [8] (cell material: Jurkat cells) it was 5.56; in [8] (cell material: Jurkat lysate), < 4.52; in assay [8] (cell material: Lysate mix), < 4.52. Further, the negative-log IC50 (pIC50) in [9] (cell material: Jurkat cells) is 5; in assay [9] (cell material: Jurkat lysate) it was < 4.52; in assay [9] (cell material: Lysate mix), < 4.52.
Turning to `CCNC(=O)c1cc(Nc2cc(C3CC3)[nH]n2)nc(N2CCN(Cc3ccc(S(=O)(=O)F)cc3)CC2)n1`, the negative-log IC50 (pIC50) in assay [1] (cell material: Lysate mix) is < 4.52; in [2] (cell material: Lysate mix), < 4.52; in assay [3] (cell material: Lysate mix) it was < 4.52; in assay [4] (cell material: Lysate mix), < 4.52; in assay [5] (cell material: Lysate mix) it was 5.41; in assay [6] (cell material: Lysate mix) it was < 4.52. Also, the results for the pIC50 in [7] (cell material: Lysate mix), in [8] (cell material: Lysate mix) and in [9] (cell material: Lysate mix) were 4.87, < 4.52 and < 4.52, respectively.
For `C#CCNC(=O)c1cc(Nc2cc(C)[nH]n2)nc(N2CCN(Cc3ccc(S(=O)(=O)F)cc3)CC2)n1`, the pIC50 in assay [1] (cell material: Lysate mix) was < 4.52; in assay [2] (cell material: Lysate mix), < 4.52; in [3] (cell material: Lysate mix) it was < 4.52; in [4] (cell material: Lysate mix), < 4.52; in [5] (cell material: Lysate mix), 4.71; in [6] (cell material: Lysate mix) it was < 4.52. Further, the pIC50 in assay [7] (cell material: Lysate mix), in assay [8] (cell material: Lysate mix) and in assay [9] (cell material: Lysate mix) was < 4.52 throughout.
Consider `O=C(NCCNC(=O)c1cc(Nc2cc(C3CC3)[nH]n2)nc(N2CCN(Cc3ccc(S(=O)(=O)F)cc3)CC2)n1)OC1CC/C=C/CCC1` (centres undefined), for which the negative-log IC50 (pIC50) in assay [1] (cell material: Jurkat lysate), in [1] (cell material: Lysate mix), in assay [2] (cell material: Jurkat cells), in assay [2] (cell material: Jurkat lysate), in assay [2] (cell material: Lysate mix) and in [3] (cell material: Jurkat cells) was < 4.52 each time. For the same molecule, the negative-log IC50 (pIC50) was < 4.52 in [3] (cell material: Jurkat lysate); < 4.52 in assay [3] (cell material: Lysate mix); < 4.52 in assay [4] (cell material: Jurkat cells); < 4.52 in [4] (cell material: Jurkat lysate); < 4.52 in assay [4] (cell material: Lysate mix); 4.81 in assay [5] (cell material: Jurkat cells). Also, the pIC50 in assay [5] (cell material: Jurkat lysate), in [5] (cell material: Lysate mix), in assay [6] (cell material: Jurkat cells), in assay [6] (cell material: Jurkat lysate), in [6] (cell material: Lysate mix) and in assay [7] (cell material: Jurkat cells) was < 4.52 each time. The pIC50 in assay [7] (cell material: Jurkat lysate), in assay [7] (cell material: Lysate mix), in assay [8] (cell material: Jurkat cells), in [8] (cell material: Jurkat lysate), in assay [8] (cell material: Lysate mix) and in assay [9] (cell material: Jurkat cells) was < 4.52 throughout. Besides, the pIC50 in assay [9] (cell material: Jurkat lysate) and in assay [9] (cell material: Lysate mix) was < 4.52 throughout.
Consider `CCNC(=O)c1cc(Nc2cc(C)[nH]n2)nc(N2CCN(Cc3ccc(S(=O)(=O)F)cc3)CC2)n1`, for which the negative logarithm of the IC50 (pIC50) was < 4.52 in assay [1] (cell material: Lysate mix); < 4.52 in assay [2] (cell material: Lysate mix); < 4.52 in assay [3] (cell material: Lysate mix); < 4.52 in assay [4] (cell material: Lysate mix); 4.78 in assay [5] (cell material: Lysate mix); < 4.52 in [6] (cell material: Lysate mix). Besides, the negative-log IC50 (pIC50) in [7] (cell material: Lysate mix), in assay [8] (cell material: Lysate mix) and in [9] (cell material: Lysate mix) was < 4.52 each time.

The values are drawn from the supplement of paper PMC12076712.
